Reference: patent US10184115B2, “Mutated cellobiose dehydrogenase with increased substrate specificity” (DIRECTSENS GMBH, priority 2012, dated 2019)

Molecular target: T1, Myriococcum thermophilum cellobiose dehydrogenase (CDH, SEQ ID NO: 1) variant W316L (Thermothelomyces myriococcoides, UniProt A9XK88, W316L)
T1 sequence (A9XK88 22-828 W316L): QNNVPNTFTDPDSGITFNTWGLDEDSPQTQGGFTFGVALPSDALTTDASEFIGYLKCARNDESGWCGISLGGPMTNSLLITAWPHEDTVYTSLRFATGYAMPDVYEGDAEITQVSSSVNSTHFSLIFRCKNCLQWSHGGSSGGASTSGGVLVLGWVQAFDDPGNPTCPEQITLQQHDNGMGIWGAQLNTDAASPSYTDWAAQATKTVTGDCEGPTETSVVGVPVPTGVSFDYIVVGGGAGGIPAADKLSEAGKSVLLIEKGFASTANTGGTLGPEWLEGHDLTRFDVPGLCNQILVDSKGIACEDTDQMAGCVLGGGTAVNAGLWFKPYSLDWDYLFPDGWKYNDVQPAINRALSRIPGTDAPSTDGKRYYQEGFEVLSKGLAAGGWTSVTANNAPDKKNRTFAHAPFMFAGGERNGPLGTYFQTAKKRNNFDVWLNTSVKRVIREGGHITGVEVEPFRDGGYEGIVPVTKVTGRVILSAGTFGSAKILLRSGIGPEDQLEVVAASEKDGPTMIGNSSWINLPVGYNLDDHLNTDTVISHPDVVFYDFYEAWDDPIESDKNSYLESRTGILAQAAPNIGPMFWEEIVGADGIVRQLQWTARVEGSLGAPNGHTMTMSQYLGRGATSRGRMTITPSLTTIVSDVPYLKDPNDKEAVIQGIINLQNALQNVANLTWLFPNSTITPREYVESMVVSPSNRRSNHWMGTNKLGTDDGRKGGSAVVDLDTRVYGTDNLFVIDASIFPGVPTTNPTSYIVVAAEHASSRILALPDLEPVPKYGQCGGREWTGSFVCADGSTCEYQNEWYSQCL
Experiment: Steady-state kinetics, DCIP assay: M. thermophilum CDH W316L
Assay type: biochemical
Details: apparent, pH 4.5, 30° C.
Procedure: Enzyme activity was assayed at 30° C. using either the DCIP (Karapetyan et al., 2005 Journal of Biotechnology 121: 34-48) or cytochrome c (Canevascini et al., 1991, European Journal of Biochemistry 198: 43-52) as electron acceptor. […] Stock solutions of carbohydrates used for kinetic measurements were prepared in the respective buffer and allowed to stand overnight for mutarotation, while stock solutions of electron acceptors were prepared in water and immediately used. The reaction stoichiometry is 1 for the two-electron acceptor DCIP (1 mole of DCIP reduced per mole of carbohydrate oxidized), but 2 for the one-electron acceptor cytochrome c. Kinetic constants were calculated by fitting the observed data to the Henri-Michaelis-Menten equation or to the adapted model for substrate inhibition using nonlinear least-squares regression and the program SigmaPlot (Systat Software, San Jose, Calif., USA). […]
Recombinant wild-type CDH as well as variants were produced in 1 L baffled flasks. […] Increase in activity was monitored using the DCIP and the cytochrome c enzyme assays. […]
The sample was loaded on a 20 mL PHE Sepharose FF column (HR26/20) equilibrated with 50 mM Na-acetate buffer pH 5.5 containing 20% ammonium sulfate. […] Fractions were tested for CDH activity and pooled according to the highest Reinheitszahl (RZ, calculated from the absorbance ratio 420 nm/280 nm). […]

For `OC[C@H]1O[C@H](O[C@H]2[C@H](O)[C@@H](O)C(O)O[C@@H]2CO)[C@H](O)[C@@H](O)[C@@H]1O` (some centres unmarked) [Maltose, maltose], the kcat/KM was 2.6 M⁻¹ s⁻¹ and the kcat (~ values only estimated by non linear regression) was 0.59 s⁻¹.
